Reference: ChEMBL document CHEMBL5104116, “Strategies for targeting the P2Y12 receptor in the central nervous system” (Bioorg Med Chem Lett, 2022)
pIC50, pKd, pKi: −log10 of the molar value. Values belong to the compound of their own block, whether it stands above or below them.

Assays:
P2Y purinoceptor 12 [1] = target: T1, P2Y purinoceptor 12 (Homo sapiens, UniProt Q9H244); assay: Binding affinity to P2Y12 (unknown origin) assessed as inhibition constant
P2Y purinoceptor 12 [2] = target: T1, P2Y purinoceptor 12; assay: Inhibition of P2Y12 (unknown origin)
P2Y purinoceptor 12 [3] = target: T1, P2Y purinoceptor 12; assay: Displacement of [33P]-2MeS-ADP from recombinant human P2Y12 transfected in HEK cell membrane assessed as inhibition constant incubated for 1 hr by competitive binding assay; assay type: cell membranes
P2Y purinoceptor 12 [4] = target: T1, P2Y purinoceptor 12; assay: Displacement of [3H]-2MesADP from recombinant human P2Y12 transfected in HEK cell membrane assessed as inhibition constant; assay type: cell membranes
P2Y purinoceptor 12 [5] = target: T1, P2Y purinoceptor 12; assay: Displacement of [3H]PSB-0413 from P2Y12 in human platelets assessed as dissociation constant; assay type: cell-based, Platelet
P2Y purinoceptor 12 [6] = target: T1, P2Y purinoceptor 12; assay: Displacement of [3H]-2MesADP from human P2Y12 in HEK cell membrane assessed as inhibition constant incubated for 1 hr by scintillation counter method; assay type: cell membranes

T1 sequence (Q9H244 whole entry): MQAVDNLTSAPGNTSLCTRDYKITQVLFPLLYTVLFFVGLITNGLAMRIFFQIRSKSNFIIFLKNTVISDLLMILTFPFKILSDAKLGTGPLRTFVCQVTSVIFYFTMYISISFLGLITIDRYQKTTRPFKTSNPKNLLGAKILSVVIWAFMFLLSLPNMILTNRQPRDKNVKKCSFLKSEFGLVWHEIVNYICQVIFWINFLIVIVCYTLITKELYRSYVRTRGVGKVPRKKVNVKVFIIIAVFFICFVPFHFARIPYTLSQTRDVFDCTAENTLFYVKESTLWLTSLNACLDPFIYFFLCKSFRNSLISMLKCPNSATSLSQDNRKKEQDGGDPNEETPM

pKi (P2Y purinoceptor 12 [1]): 8.46
SMILES: CCCCCOC(=O)N1CCN(C(=O)[C@H](CCC(=O)O)NC(=O)c2cc(N3CCC(COC)CC3)cc(-c3ccccc3)n2)CC1

pIC50 (P2Y purinoceptor 12 [2]): 8.00
SMILES: CCCSc1nc(N[C@@H]2C[C@H]2c2ccc(F)c(F)c2)c2nnn([C@@H]3C[C@H](OCCO)[C@@H](O)[C@H]3O)c2n1 [TICAGRELOR]

pIC50 (P2Y purinoceptor 12 [2]): 5.74
SMILES: CC(=O)Oc1cc2c(s1)CCN(C(C(=O)C1CC1)c1ccccc1F)C2 (stereo not drawn)

pKd (P2Y purinoceptor 12 [5]): 8.19
SMILES: [3H]C([3H])C([3H])([3H])CSc1nc(N)c2ncn([C@@H]3O[C@H](COP(=O)(O)OP(=O)(O)O)[C@@H](O)[C@H]3O)c2n1

Continued, compound first:

SMILES: NCc1cc2c(N3CCN(C(=O)c4ccc(-c5ccccc5)cc4)CC3)nc(N3CCNC(=O)C3)nc2s1
pKi (P2Y purinoceptor 12 [3]): 8.05

SMILES: COC(=O)[C@H](c1ccccc1Cl)N1CCc2sccc2C1 [CLOPIDOGREL]
pIC50 (P2Y purinoceptor 12 [2]): 5.62

SMILES: CSc1nc(N)c2ncn([C@@H]3O[C@H](COP(=O)(O)OP(=O)(O)O)[C@@H](O)[C@H]3O)c2n1
pKi (P2Y purinoceptor 12 [4]): 7.49

SMILES: CCCc1cc2c(N3CCn4c(nnc4C(F)(F)F)C3)nc(OCCF)nc2s1
pKi (P2Y purinoceptor 12 [6]): 9.52
